The source made the active and inactive calls. The calls are words filed in the database; no cut-off is given here.
Columns and labels:
[1] = system: 8505C; assay: Anticancer activity against human 8505C cells measured after 96 hrs by sulforhodamine B assay; assay type: functional, cell-based
[2] = system: A253 cell line; assay: Anticancer activity against human A253 cells measured after 96 hrs by sulforhodamine B assay; assay type: functional, cell-based; conditions: A253, 96 h
[3] = system: A2780; assay: Anticancer activity against human A2780 cells measured after 96 hrs by sulforhodamine B assay; assay type: functional, cell-based; conditions: A2780, 96 h
[4] = system: DLD-1; assay: Anticancer activity against human DLD1 cells measured after 96 hrs by sulforhodamine B assay; assay type: functional, cell-based; conditions: DLD-1, 96 h
[5] = system: HT-29; assay: Anticancer activity against human HT-29 cells measured after 96 hrs by sulforhodamine B assay; assay type: functional, cell-based; conditions: HT-29, 96 h
[6] = system: MCF7; assay: Anticancer activity against human MCF7 cells measured after 96 hrs by sulforhodamine B assay; assay type: functional, cell-based; conditions: MCF7, 96 h
[7] = system: SW-1736; assay: Anticancer activity against human SW1736 cells measured after 96 hrs by sulforhodamine B assay; assay type: functional, cell-based; conditions: SW-1736, 96 h
[8] = system: NIH3T3; assay: Cytotoxicity against mouse NIH/3T3 cells measured after 96 hrs by sulforhodamine B assay; assay type: cell-based; conditions: NIH3T3, 96 h
[9] = system: 518A2; assay: Anticancer activity against human 518A2 cells measured after 96 hrs by sulforhodamine B assay; assay type: functional, cell-based; conditions: 518A2, 96 h
[10] = system: A549; assay: Anticancer activity against human A549 cells measured after 96 hrs by sulforhodamine B assay; assay type: functional, cell-based; conditions: A549, 96 h
[11] = system: A2780; assay: Induction of apoptosis in human A2780 cells assessed as loss of cell membrane integrity at 30 uM measured for 72 hrs by acridine orange/propidium iodide staining based fluorescence microscopic analysis; assay type: functional
[12] = system: A2780; assay: Induction of apoptosis in human A2780 cells assessed as membrane blebbing at 30 uM measured for 72 hrs by acridine orange/propidium iodide staining based fluorescence microscopic analysis; assay type: functional, cell-based
[13] = system: A2780; assay: Induction of necrosis in human A2780 cells at 30 uM measured for 72 hrs by acridine orange/propidium iodide staining based fluorescence microscopic analysis; assay type: functional, cell-based
[14] = system: A2780; assay: Induction of apoptosis in human A2780 cells assessed as […] cell death at 30 uM measured after 24 to 72 hrs by annexin v flow cytometry analysis; assay type: functional, cell-based
[15] = system: A2780; assay: Induction of apoptosis in human A2780 cells assessed as loss of cell membrane integrity at 15 uM measured for 72 hrs by acridine orange/propidium iodide staining based fluorescence microscopic analysis; assay type: functional
[16] = system: A2780; assay: Induction of apoptosis in human A2780 cells assessed as membrane blebbing at 15 uM measured for 72 hrs by acridine orange/propidium iodide staining based fluorescence microscopic analysis; assay type: functional, cell-based
[17] = system: A2780; assay: Induction of necrosis in human A2780 cells at 15 uM measured for 72 hrs by acridine orange/propidium iodide staining based fluorescence microscopic analysis; assay type: functional, cell-based
[18] = system: A2780; assay: Induction of apoptosis in human A2780 cells assessed as […] cell death at 15 uM measured after 24 to 72 hrs by annexin v flow cytometry analysis; assay type: functional, cell-based

| Compound | EC50 [1] | EC50 [2] | EC50 [3] | EC50 [4] | EC50 [5] | EC50 [6] | EC50 [7] | EC50 [9] | EC50 [10] | EC50 [8] | Activity [11] | Activity [12] | Activity [13] | Activity [14] | Activity [15] | Activity [16] | Activity [17] | Activity [18] |
| --- | --- | --- | --- | --- | --- | --- | --- | --- | --- | --- | --- | --- | --- | --- | --- | --- | --- | --- |
| CC1(C)CC[C@]2(C(=O)O)CC[C@]3(C)C(=CC[C@@H]4[C@@]5(C)C[C@@H](O)[C@H](OC(=O)c6cc([N+](=O)[O-])cc([N+](=O)[O-])c6)C(C)(C)[C@@H]5CC[C@]43C)[C@@H]2C1 | 7.5 µM | 8.3 µM | 5.5 µM | 7.2 µM | 9.4 µM | 4.2 µM | 12.8 µM | – | – | 15.7 µM | – | – | – | – | – | – | – | – |
| CC(=O)O[C@@H]1C[C@]2(C)[C@H]3CC=C4[C@@H]5CC(C)(C)CC[C@]5(C(=O)O)CC[C@@]4(C)[C@]3(C)CC[C@H]2C(C)(C)[C@H]1OC(C)=O | 5.7 µM | 7.7 µM | 17.3 µM | 17 µM | 8.5 µM | 8.5 µM | – | 14.6 µM | 4.2 µM | 10.4 µM | – | – | – | – | – | – | – | – |
| CC1(C)CC[C@]2(C(=O)O)CC[C@]3(C)C(=CC[C@@H]4[C@@]5(C)C[C@@H](OC(=O)c6cccnc6Cl)[C@H](OC(=O)c6cccnc6Cl)C(C)(C)[C@@H]5CC[C@]43C)[C@@H]2C1 | > 30 µM | > 30 µM | 29.3 µM | > 30 µM | > 30 µM | > 30 µM | > 30 µM | 17.1 µM | > 30 µM | > 30 µM | – | – | – | – | – | – | – | – |
| CC1(C)CC[C@]2(C(=O)O)CC[C@]3(C)C(=CC[C@@H]4[C@@]5(C)C[C@@H](O)[C@H](OC(=O)c6ccccc6Cl)C(C)(C)[C@@H]5CC[C@]43C)[C@@H]2C1 | 6.9 µM | 5.4 µM | – | 5.2 µM | – | 3.3 µM | 12.9 µM | 6.8 µM | 5.8 µM | 7.1 µM | – | – | – | – | – | – | – | – |
| CC1(C)CC[C@]2(C(=O)O)CC[C@]3(C)C(=CC[C@@H]4[C@@]5(C)C[C@@H](OC(=O)c6ccccc6F)[C@H](O)C(C)(C)[C@@H]5CC[C@]43C)[C@@H]2C1 | 12.6 µM | 12.9 µM | 6 µM | 10.7 µM | 6.3 µM | 7.1 µM | 16.9 µM | 11.6 µM | 9.4 µM | 16.9 µM | – | – | – | – | – | – | – | – |
| CC1(C)CC[C@]2(C(=O)O)CC[C@]3(C)C(=CC[C@@H]4[C@@]5(C)C[C@@H](O)[C@H](OC(=O)c6ccccc6F)C(C)(C)[C@@H]5CC[C@]43C)[C@@H]2C1 | 12.6 µM | 6.6 µM | 6 µM | 10.1 µM | – | 6.7 µM | 21.2 µM | 11.8 µM | 9.8 µM | 12.5 µM | – | – | – | – | – | – | – | – |
| CC1(C)CC[C@]2(C(=O)O)CC[C@]3(C)C(=CC[C@@H]4[C@@]5(C)C[C@@H](OC(=O)c6ccccc6)[C@H](O)C(C)(C)[C@@H]5CC[C@]43C)[C@@H]2C1 | 11.2 µM | 9 µM | 6.4 µM | 10.3 µM | 12.7 µM | – | 18.2 µM | 15.5 µM | 9.1 µM | 15 µM | – | – | – | – | – | – | – | – |

Continued, in another order:

| EC50 [1] | EC50 [2] | EC50 [3] | EC50 [4] | EC50 [5] | EC50 [6] | EC50 [7] | EC50 [9] | EC50 [10] | Compound | EC50 [8] | Activity [11] | Activity [12] | Activity [13] | Activity [14] | Activity [15] | Activity [16] | Activity [17] | Activity [18] |
| --- | --- | --- | --- | --- | --- | --- | --- | --- | --- | --- | --- | --- | --- | --- | --- | --- | --- | --- |
| 8.1 µM | 9.7 µM | 6.2 µM | 7.1 µM | 11.1 µM | 5.1 µM | 14.8 µM | 12.1 µM | 6.1 µM | CC1(C)CC[C@]2(C(=O)O)CC[C@]3(C)C(=CC[C@@H]4[C@@]5(C)C[C@@H](OC(=O)c6cc([N+](=O)[O-])cc([N+](=O)[O-])c6)[C@H](O)C(C)(C)[C@@H]5CC[C@]43C)[C@@H]2C1 | 17.4 µM | – | – | – | – | – | – | – | – |
| 8.8 µM | 11 µM | 19.9 µM | 23.1 µM | 10.7 µM | 11.5 µM | – | 21 µM | 4.3 µM | CC(=O)O[C@@H]1C[C@]2(C)[C@H]3CC=C4[C@@H]5CC(C)(C)CC[C@]5(C(=O)O)CC[C@@]4(C)[C@]3(C)CC[C@H]2C(C)(C)[C@H]1O | 15.4 µM | – | – | – | – | – | – | – | – |
| – | – | – | – | – | 24.4 µM | – | – | – | CC1(C)CC[C@]2(C(=O)O)CC[C@]3(C)C(=CC[C@@H]4[C@@]5(C)C[C@@H](O)[C@H](O)C(C)(C)[C@@H]5CC[C@]43C)[C@@H]2C1 [MASLINIC ACID] | 16.6 µM | Active | Active | Active | Active | – | – | – | – |
| 16.4 µM | 12.7 µM | 11.2 µM | 17.9 µM | 16.5 µM | – | 19.4 µM | – | 17.4 µM | CC1(C)CC[C@]2(C(=O)O)CC[C@]3(C)C(=CC[C@@H]4[C@@]5(C)C[C@@H](OC(=O)c6ccccc6)[C@H](OC(=O)c6ccccc6)C(C)(C)[C@@H]5CC[C@]43C)[C@@H]2C1 | 23.2 µM | – | – | – | – | – | – | – | – |
| 8.9 µM | 10.4 µM | 4.7 µM | 7.6 µM | 8.5 µM | 5.6 µM | 13.9 µM | 8.3 µM | 7.5 µM | CC1(C)CC[C@]2(C(=O)O)CC[C@]3(C)C(=CC[C@@H]4[C@@]5(C)C[C@@H](OC(=O)c6ccccc6Cl)[C@H](O)C(C)(C)[C@@H]5CC[C@]43C)[C@@H]2C1 | 10.4 µM | – | – | – | – | Active | Active | Active | Active |

Reference: ChEMBL document CHEMBL4364317, “2-O-(2-chlorobenzoyl) maslinic acid triggers apoptosis in A2780 human ovarian carcinoma cells” (Eur J Med Chem, 2019)
